Measurements: patent publication US8906898B1, “Solid forms of ceftolozane” (Calixa Therapeutics, Inc., priority 2013, dated 2014)
Structures can show the parent of a compound that is named as a salt.

Columns and labels:
[1] = Melting point experiment (SRS Optimelt), thermal decomposition; assay type: physicochemical; details: scan from 100° C. to 400° C.; decomposed prior to melting
Description: Melting point experiment was performed for ceftolozane sulfate form 2 using the SRS Optimelt melting point apparatus. SRS-certified vanillin and phenacetin were used to verify the system performance. The temperature scan from 100° C. to 400° C. was performed for ceftolozane sulfate. The material decomposed prior to melting. The decomposition, as indicated by the distinct change in color, appeared to commence at about 170° C.

[2] = assay type: physicochemical
Description: Thermo Gravimetric Analysis (TGA) experiments were performed on a TA Instruments Discovery Series TGA. The calibration for temperature was carried out using certified indium. Typically, 3-15 mg of a sample was flattened into sealed aluminum pans. Data was acquired for samples with and without a pinhole. For samples with a pinhole, once crimped and sealed, the auto-sampler punched the lid of the sample with its internal puncher right before analysis of the sample. Samples were heated at 20° C./min from 30° C. to 400° C. Dry nitrogen was purged into the system during the experiment at a rate of 50 ml/min. The software used to control the instrument was TRIOS Explorer Software v5.3.0.75. TRIOS software v2.40.1838 or v2.04.04563 was used for data analysis.
Thermogravimetric analysis (TGA) and differential scanning calorimetry (DSC) thermograms are shown in FIG. 3 and FIG. 4, respectively. […] The subsequent exotherm in the thermogram is indicative of decompostion that is consistent with the observation in the melting point experiment.

[3] = Gravimetric dynamic vapour sorption (moisture sorption/desorption, hygroscopicity); assay type: physicochemical; details: 25° C.
Description: Gravimetric dynamic vapor sorption data (FIG. 5) was obtained using a SMS DVS Intrinsic moisture sorption analyser, controlled by DVS Intrinsic Control software v1.0.0.30. The sample temperature was maintained at 25° C. by the instrument controls. The humidity was controlled by mixing streams of dry and wet nitrogen. The relative humidity was measured by a calibrated Rotronic probe, located near the sample. The weight change of the sample as a function of % RH was constantly monitored by the microbalance (accuracy ±0.005 mg). Approximately 40 mg of sample was placed in a tared mesh stainless basket under ambient conditions. Weight reference was established at the start of an experiment. Moisture sorption isotherm parameters were described as below: [table] The moisture sorption/desorption property of crystalline cefolozane sulfate form 2 is depicted in FIG. 5. A reversible hysteresis associated with around 23% w/w water between 0% and 90% relative humidity (RH) was observed. The DVS isotherm in FIG. 5 is consistent with the presence of two crystalline forms that can be interconverted as function of relative humidity. The presence of ceftolozane sulfate solid Form 1 and ceftolozane sulfate solid Form 2 in the sample tested to obtain the DVS isotherm in FIG. 5 was confirmed by a variable humidity XRPD (VH-XRPD) measurement, based on the XRPD diffraction angles disclosed for Form 1 and Form 2 of ceftolozane sulfate (as disclosed herein). Referring to DVS the isotherm plot in FIG. 5, the lower curve corresponds to ceftolozane sulfate in solid Form 2, and the upper curve is corresponds to ceftolozane sulfate in solid Form 1. The Y-axis of the DVS plot is change in mass. The X-axis of DVS plot refers to the percent relative humidity (RH) of the sample. Reference point 10 in FIG. 5 is the starting point of Form 2 in DVS experiment. The lower portion of the curve in FIG. 5 was obtained by measuring the change in mass of a ceftolozane sulfate sample in solid Form 2 while increasing relative humidity (RH) in the sample, starting at reference point 10 of the lower curve from reference point 10 (Form 2) and moving toward reference point 20 (Form 1). Based on the data collected, the ceftolozane sulfate in the sample converted from Form 2 to Form 1 when the sample was exposed to conditions between 50% RH (reference point 12) and 70% RH (reference point 15). Referring again to the lower curve in FIG. 5, ceftolozane sulfate in Form 1 is present in the sample from 70% RH to reference point 20, where the sample is ceftolozane sulfate is in crystalline Form 1. Referring to the upper curve in FIG. 5, from reference point 20 to reference point 30, the ceftolozane sulfate in the sample material remains as solid Form 1. From reference point 30 to around 20% RH (reference point 35 on the upper curve), the crystalline form of ceftolozane sulfate in the material transforms from Form 1 to Form 2. As the relative humidity of the sample was dropped below about 20% on the upper curve between reference point 30 and reference point 40 (0% RH), the ceftolozane sulfate became more amorphous, with some residual Form 2 remaining at reference point 40. […] Hygroscopicity of ceftolozane sulfate, Form 2 was assessed using the SMS DVS Intrinsic moisture sorption analyzer equipped with a calibrated Rotronic probe. […]

With `Cn1c(N)c(NC(=O)NCCN)c[n+]1CC1=C(C(=O)O)N2C(=O)[C@@H](NC(=O)/C(=N\OC(C)(C)C(=O)O)c3nsc(N)n3)[C@H]2SC1` [ceftolozane sulfate Form 2] as the molecule, how does the “temperature at which decomposition commenced (change in color)” value [1] read?
The value was “about 170 °C”.

What about the “temperature beyond which degradation likely occurs” value [2] of the same molecule?
Its value is over 181 °C.

What about the hygroscopicity ([3]; RH 0 to 90%) of the same molecule?
Its hygroscopicity is “hygroscopic”.

And the “total uptake of water” value ([3]; at 90% relative humidity, RH 0 to 90%)?
Its value is 23%.

And the “reversible hysteresis, water” value ([3]; between 0% and 90% relative humidity)?
The value was “around 23 % w/w”.

What about the “relative humidity below which the solid became more amorphous” value ([3]; decreasing RH to 0%, some residual Form 2) of the same molecule?
Its value is “below 20%”.
